Patent US20230085307A1, “PYRIDAZINONE COMPOUND AND HERBICIDE” (NISSAN CHEMICAL CORPORATION, priority 2019, published 2023)

Each molecule was assayed on barnyard grass (assay: Test Example 3: herbicidal effect by foliage application, Wagner pot (Table 18, symbol H)). Settings: 320 g/ha.
Assay type: in vivo, barnyard grass (Echinochloa crus-galli)
Procedure, shortened: (§1)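 Plants were sown in alluvial soil held under 0.1–0.5 cm standing water and grown 14 days in a greenhouse at 25–30 °C. An emulsifiable formulation, water-diluted to the set dose, was then sprayed onto the foliage, and effects were scored three weeks later using previously defined criteria.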

Compound | herbicidal effect on barnyard grass (H)
COc1ccccc1-c1sc2c(Cl)cccc2c1-c1c(O)c(C)nn(C)c1=O [4-021] | 4 (Herbicidal rate of 70% or more and less than 90%)

Each molecule was assayed on Chinese sprangletop (assay: Test Example 3: herbicidal effect by foliage application, Wagner pot (Table 18, symbol D)). Settings: 320 g/ha.
Assay type: in vivo, chinese sprangletop (Leptochloa chinensis)
Procedure, shortened: as §1

Compound | herbicidal effect on Chinese sprangletop (D)
COc1ccccc1-c1sc2c(Cl)cccc2c1-c1c(O)c(C)nn(C)c1=O [4-021] | 4 (Herbicidal rate of 70% or more and less than 90%)

These molecules were tested on rice flat sedge (assay: Test Example 3: herbicidal effect by foliage application, Wagner pot (Table 18, symbol E)). Settings: 320 g/ha.
Assay type: in vivo, rice flat sedge (Cyperus iria)
Procedure, shortened: as §1

Compound | herbicidal effect on rice flat sedge (E)
COc1ccccc1-c1sc2c(Cl)cccc2c1-c1c(O)c(C)nn(C)c1=O [4-021] | 5 (Herbicidal rate of 90% or more (almost completely withered))

What follows are molecules tested on southern crabgrass (assay: Test Example 4: herbicidal effect by soil treatment (Table 19, symbol F)). Settings: amount of applied herbicide 320 g/ha.
Assay type: in vivo, southern crabgrass (Digitaria ciliaris)
Procedure, shortened: (§2)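 Step 1: sow seeds in sterilized diluvial soil, cover ~1.5 cm. Step 2: spray diluted emulsion onto soil surface at predetermined rate. Step 3: greenhouse, 25–30° C, three weeks. Step 4: grade effect on each plant by earlier criteria.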

Compound | Herbicidal effect by soil treatment, F: southern crabgrass
COc1ccccc1-c1sc2c(Cl)cccc2c1-c1c(O)c(C)nn(C)c1=O [4-021] | 0 (Herbicidal rate of 5% or less (almost no effect))

These molecules were tested on green foxtail (assay: Test Example 4: herbicidal effect by soil treatment (Table 19, symbol G)). Settings: amount of applied herbicide 320 g/ha.
Assay type: in vivo, green foxtail (Setaria viridis)
Procedure, shortened: as §2

Compound | Herbicidal effect by soil treatment, G: green foxtail
COc1ccccc1-c1sc2c(Cl)cccc2c1-c1c(O)c(C)nn(C)c1=O [4-021] | 0 (Herbicidal rate of 5% or less (almost no effect))

These molecules were tested on barnyard grass (assay: Test Example 4: herbicidal effect by soil treatment (Table 19, symbol H)). Settings: amount of applied herbicide 320 g/ha.
Assay type: in vivo, barnyard grass (Echinochloa crus-galli)
Procedure, shortened: as §2

Compound | Herbicidal effect by soil treatment, H: barnyard grass
COc1ccccc1-c1sc2c(Cl)cccc2c1-c1c(O)c(C)nn(C)c1=O [4-021] | 0 (Herbicidal rate of 5% or less (almost no effect))

What follows are molecules tested on wild oat (assay: Test Example 4: herbicidal effect by soil treatment (Table 19, symbol I)). Settings: amount of applied herbicide 320 g/ha.
Assay type: in vivo, wild oat (Avena fatua)
Procedure, shortened: as §2

Compound | Herbicidal effect by soil treatment, I: wild oat
COc1ccccc1-c1sc2c(Cl)cccc2c1-c1c(O)c(C)nn(C)c1=O [4-021] | 0 (Herbicidal rate of 5% or less (almost no effect))

These molecules were tested on blackgrass (assay: Test Example 4: herbicidal effect by soil treatment (Table 19, symbol J)). Settings: amount of applied herbicide 320 g/ha.
Assay type: in vivo, blackgrass (Alopecurus myosuroides)
Procedure, shortened: as §2

Compound | Herbicidal effect by soil treatment, J: blackgrass
COc1ccccc1-c1sc2c(Cl)cccc2c1-c1c(O)c(C)nn(C)c1=O [4-021] | 0 (Herbicidal rate of 5% or less (almost no effect))

These molecules were tested on Italian ryegrass (assay: Test Example 4: herbicidal effect by soil treatment (Table 19, symbol K)). Settings: amount of applied herbicide 320 g/ha.
Assay type: in vivo, Italian ryegrass (Lolium multiflorum)
Procedure, shortened: as §2

Compound | Herbicidal effect by soil treatment, K: Italian ryegrass
COc1ccccc1-c1sc2c(Cl)cccc2c1-c1c(O)c(C)nn(C)c1=O [4-021] | 0 (Herbicidal rate of 5% or less (almost no effect))

Each molecule was assayed on windgrass (assay: Test Example 4: herbicidal effect by soil treatment (Table 19, symbol L)). Settings: amount of applied herbicide 320 g/ha.
Assay type: in vivo, windgrass (Apera spica-venti)
Procedure, shortened: as §2

Compound | Herbicidal effect by soil treatment, L: windgrass
COc1ccccc1-c1sc2c(Cl)cccc2c1-c1c(O)c(C)nn(C)c1=O [4-021] | 0 (Herbicidal rate of 5% or less (almost no effect))

These molecules were tested on velvetleaf (assay: Test Example 4: herbicidal effect by soil treatment (Table 19, symbol M)). Settings: amount of applied herbicide 320 g/ha.
Assay type: in vivo, velvetleaf (Abutilon theophrasti)
Procedure, shortened: as §2

Compound | Herbicidal effect by soil treatment, M: velvetleaf
COc1ccccc1-c1sc2c(Cl)cccc2c1-c1c(O)c(C)nn(C)c1=O [4-021] | 0 (Herbicidal rate of 5% or less (almost no effect))

Each molecule was assayed on redroot pigweed (assay: Test Example 4: herbicidal effect by soil treatment (Table 19, symbol N)). Settings: amount of applied herbicide 320 g/ha.
Assay type: in vivo, redroot pigweed (Amaranthus retroflexus)
Procedure, shortened: as §2

Compound | Herbicidal effect by soil treatment, N: redroot pigweed
COc1ccccc1-c1sc2c(Cl)cccc2c1-c1c(O)c(C)nn(C)c1=O [4-021] | 2 (Herbicidal rate of 20% or more and less than 40%)

The molecules below were run on lambsquarters (assay: Test Example 4: herbicidal effect by soil treatment (Table 19, symbol O)). Settings: amount of applied herbicide 320 g/ha.
Assay type: in vivo, lambsquarters (Chenopodium album)
Procedure, shortened: as §2

Compound | Herbicidal effect by soil treatment, O: lambsquarters
COc1ccccc1-c1sc2c(Cl)cccc2c1-c1c(O)c(C)nn(C)c1=O [4-021] | 1 (Herbicidal rate of 5% or more and less than 20%)

The molecules below were run on chickweed (assay: Test Example 4: herbicidal effect by soil treatment (Table 19, symbol P)). Settings: amount of applied herbicide 320 g/ha.
Assay type: in vivo, common chickweed (Stellaria media)
Procedure, shortened: as §2

Compound | Herbicidal effect by soil treatment, P: chickweed
COc1ccccc1-c1sc2c(Cl)cccc2c1-c1c(O)c(C)nn(C)c1=O [4-021] | 4 (Herbicidal rate of 70% or more and less than 90%)

The molecules below were run on persian speedwell (assay: Test Example 4: herbicidal effect by soil treatment (Table 19, symbol R)). Settings: amount of applied herbicide 320 g/ha.
Assay type: in vivo, Persian speedwell (Veronica persica)
Procedure, shortened: as §2

Compound | Herbicidal effect by soil treatment, R: persian speedwell
COc1ccccc1-c1sc2c(Cl)cccc2c1-c1c(O)c(C)nn(C)c1=O [4-021] | 3 (Herbicidal rate of 40% or more and less than 70%)

These molecules were tested on southern crabgrass (assay: Test Example 5: herbicidal effect by foliage application, plastic box (Table 20, symbol F)). Settings: 320 g/ha, foliage application after 14-day growth, evaluated three weeks after application.
Assay type: in vivo, southern crabgrass (Digitaria ciliaris)
Procedure, shortened: (§3)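 Foliar spray test: emulsion formulation diluted in water to a set application rate, sprayed onto 14-day-old plants raised in diluvial soil at 25° C to 30° C under glass. Both herbicidal effect and crop effect rated visually three weeks later.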

Compound | herbicidal effect on F: southern crabgrass (evaluation grade 0-5)
COc1ccccc1-c1sc2c(Cl)cccc2c1-c1c(O)c(C)nn(C)c1=O [4-021] | 1 (Herbicidal rate of 5% or more and less than 20%)

The molecules below were run on green foxtail (assay: Test Example 5: herbicidal effect by foliage application, plastic box (Table 20, symbol G)). Settings: 320 g/ha, foliage application after 14-day growth, evaluated three weeks after application.
Assay type: in vivo, green foxtail (Setaria viridis)
Procedure, shortened: as §3

Compound | herbicidal effect on G: green foxtail (evaluation grade 0-5)
COc1ccccc1-c1sc2c(Cl)cccc2c1-c1c(O)c(C)nn(C)c1=O [4-021] | 4 (Herbicidal rate of 70% or more and less than 90%)

Each molecule was assayed on barnyard grass (assay: Test Example 5: herbicidal effect by foliage application, plastic box (Table 20, symbol H)). Settings: 320 g/ha, foliage application after 14-day growth, evaluated three weeks after application.
Assay type: in vivo, barnyard grass (Echinochloa crus-galli)
Procedure, shortened: as §3

Compound | herbicidal effect on H: barnyard grass (evaluation grade 0-5)
COc1ccccc1-c1sc2c(Cl)cccc2c1-c1c(O)c(C)nn(C)c1=O [4-021] | 3 (Herbicidal rate of 40% or more and less than 70%)

The molecules below were run on wild oat (assay: Test Example 5: herbicidal effect by foliage application, plastic box (Table 20, symbol I)). Settings: 320 g/ha, foliage application after 14-day growth, evaluated three weeks after application.
Assay type: in vivo, wild oat (Avena fatua)
Procedure, shortened: as §3

Compound | herbicidal effect on I: wild oat (evaluation grade 0-5)
COc1ccccc1-c1sc2c(Cl)cccc2c1-c1c(O)c(C)nn(C)c1=O [4-021] | 0 (Herbicidal rate of 5% or less (almost no effect))

Each molecule was assayed on blackgrass (assay: Test Example 5: herbicidal effect by foliage application, plastic box (Table 20, symbol J)). Settings: 320 g/ha, foliage application after 14-day growth, evaluated three weeks after application.
Assay type: in vivo, blackgrass (Alopecurus myosuroides)
Procedure, shortened: as §3

Compound | herbicidal effect on J: blackgrass (evaluation grade 0-5)
COc1ccccc1-c1sc2c(Cl)cccc2c1-c1c(O)c(C)nn(C)c1=O [4-021] | 0 (Herbicidal rate of 5% or less (almost no effect))

Each molecule was assayed on Italian ryegrass (assay: Test Example 5: herbicidal effect by foliage application, plastic box (Table 20, symbol K)). Settings: 320 g/ha, foliage application after 14-day growth, evaluated three weeks after application.
Assay type: in vivo, Italian ryegrass (Lolium multiflorum)
Procedure, shortened: as §3

Compound | herbicidal effect on K: Italian ryegrass (evaluation grade 0-5)
COc1ccccc1-c1sc2c(Cl)cccc2c1-c1c(O)c(C)nn(C)c1=O [4-021] | 5 (Herbicidal rate of 90% or more (almost completely withered))

These molecules were tested on windgrass (assay: Test Example 5: herbicidal effect by foliage application, plastic box (Table 20, symbol L)). Settings: 320 g/ha, foliage application after 14-day growth, evaluated three weeks after application.
Assay type: in vivo, windgrass (Apera spica-venti)
Procedure, shortened: as §3

Compound | herbicidal effect on L: windgrass (evaluation grade 0-5)
COc1ccccc1-c1sc2c(Cl)cccc2c1-c1c(O)c(C)nn(C)c1=O [4-021] | 5 (Herbicidal rate of 90% or more (almost completely withered))

What follows are molecules tested on velvetleaf (assay: Test Example 5: herbicidal effect by foliage application, plastic box (Table 20, symbol M)). Settings: 320 g/ha, foliage application after 14-day growth, evaluated three weeks after application.
Assay type: in vivo, velvetleaf (Abutilon theophrasti)
Procedure, shortened: as §3

Compound | herbicidal effect on M: velvetleaf (evaluation grade 0-5)
COc1ccccc1-c1sc2c(Cl)cccc2c1-c1c(O)c(C)nn(C)c1=O [4-021] | 2 (Herbicidal rate of 20% or more and less than 40%)

Each molecule was assayed on redroot pigweed (assay: Test Example 5: herbicidal effect by foliage application, plastic box (Table 20, symbol N)). Settings: 320 g/ha, foliage application after 14-day growth, evaluated three weeks after application.
Assay type: in vivo, redroot pigweed (Amaranthus retroflexus)
Procedure, shortened: as §3

Compound | herbicidal effect on N: redroot pigweed (evaluation grade 0-5)
COc1ccccc1-c1sc2c(Cl)cccc2c1-c1c(O)c(C)nn(C)c1=O [4-021] | 1 (Herbicidal rate of 5% or more and less than 20%)

Each molecule was assayed on lambsquarters (assay: Test Example 5: herbicidal effect by foliage application, plastic box (Table 20, symbol O)). Settings: 320 g/ha, foliage application after 14-day growth, evaluated three weeks after application.
Assay type: in vivo, lambsquarters (Chenopodium album)
Procedure, shortened: as §3

Compound | herbicidal effect on O: lambsquarters (evaluation grade 0-5)
COc1ccccc1-c1sc2c(Cl)cccc2c1-c1c(O)c(C)nn(C)c1=O [4-021] | 2 (Herbicidal rate of 20% or more and less than 40%)

Each molecule was assayed on chickweed (assay: Test Example 5: herbicidal effect by foliage application, plastic box (Table 20, symbol P)). Settings: 320 g/ha, foliage application after 14-day growth, evaluated three weeks after application.
Assay type: in vivo, common chickweed (Stellaria media)
Procedure, shortened: as §3

Compound | herbicidal effect on P: chickweed (evaluation grade 0-5)
COc1ccccc1-c1sc2c(Cl)cccc2c1-c1c(O)c(C)nn(C)c1=O [4-021] | 5 (Herbicidal rate of 90% or more (almost completely withered))

Each molecule was assayed on persian speedwell (assay: Test Example 5: herbicidal effect by foliage application, plastic box (Table 20, symbol R)). Settings: 320 g/ha, foliage application after 14-day growth, evaluated three weeks after application.
Assay type: in vivo, Persian speedwell (Veronica persica)
Procedure, shortened: as §3

Compound | herbicidal effect on R: persian speedwell (evaluation grade 0-5)
COc1ccccc1-c1sc2c(Cl)cccc2c1-c1c(O)c(C)nn(C)c1=O [4-021] | 4 (Herbicidal rate of 70% or more and less than 90%)
